# Test results as given in patent US11498903B2 (BRISTOL-MYERS SQUIBB COMPANY, priority 2017, dated 2022).
# Read-outs that look alike come from different tables or passages of the source.
# Biological target: T1, human APJ receptor (Homo sapiens, UniProt P35414)
# T1 construct: expressed in transfected cells
# T1 sequence (P35414 1-380): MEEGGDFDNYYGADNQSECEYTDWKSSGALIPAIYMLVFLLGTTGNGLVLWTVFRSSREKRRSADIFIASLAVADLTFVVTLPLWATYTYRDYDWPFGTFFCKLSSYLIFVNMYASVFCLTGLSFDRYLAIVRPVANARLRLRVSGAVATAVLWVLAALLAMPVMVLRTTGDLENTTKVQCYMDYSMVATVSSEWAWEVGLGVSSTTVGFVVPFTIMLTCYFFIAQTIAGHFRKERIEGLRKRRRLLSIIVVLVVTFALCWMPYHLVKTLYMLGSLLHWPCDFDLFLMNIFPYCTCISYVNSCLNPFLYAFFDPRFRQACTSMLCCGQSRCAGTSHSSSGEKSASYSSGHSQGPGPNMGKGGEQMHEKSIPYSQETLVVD
# Test: Intracellular cAMP accumulation assay (APJ hcAMP, HTRF)
# Assay type: cell-based
# Description: Intracellular cAMP Accumulation Assay
# HEK293 cells stably expressing human APJ receptor were used to assess the activity of compounds. Cultured cells were detached and resuspended in the cAMP Homogeneous Time-Resolved Fluorescence (HTRF) assay buffer (Cisbio cat; #62AM4PEJ). The assay was performed in 384-well assay plates (Perkin-Elmer; cat #6008289) according to assay protocol provided by the manufacturer. Serial dilutions of a compound together with assay buffer containing […] IBMX and 2 μM forskolin were added to each well containing 5,000 cells and incubated for 30 minutes at room temperature. Subsequently, cAMP D2 reagent was added in the lysis buffer followed by the EuK antibody (Cisbio; cat #62AM4PEJ) and incubated for 60 min. The fluorescence emission ratio was measured using fluorometer. The intracellular cAMP concentrations (compound-stimulated inhibition of forskolin-mediated cAMP production) were calculated by extrapolation from a standard curve using known cAMP concentrations. The EC50 values were obtained by fitting the data to a sigmoidal concentration-response curve with variable slope. The maximal achievable inhibition of forskolin-induced cAMP levels (Ymax) for each compound was expressed as relative percentage of inhibition attained using pyroglutamated apelin-13 ((Pyrl)apelin-13) peptide, which was set to 100%.
# The exemplified Examples disclosed below were tested in the APJ in vitro assays described above and were found having human APJ cyclic AMP (hcAMP) activity. Table 1 lists hcAMP EC50 values measured for the following examples. Ranges are as followε: A=0.0-10 nM; B=10.01-100 nM; C=101-500 nM.
# [1] = Table 3, HEK293 cells stably expressing human APJ receptor, read-out: APJ cAMP Human EC50
# [2] = Table 1, HEK293 cells stably expressing human APJ receptor, inhibition of forskolin-mediated cAMP production, read-out: APJ hcAMP EC50
# [3] = human APJ, cAMP, potency range class, read-out: APJ cAMP Human EC50
Compound,EC50 [1] [µM],EC50 [2] [µM],EC50 [3] [µM]
"CCC[C@@H](NC(=O)c1ccc(-c2c(Cl)cccc2-c2nc(C)c(-c3ccccc3)[nH]2)c(C(=O)O)c1)c1ccccc1 (atropisomer, axis not shown) [Example 106, (S)-2′-chloro-6′-(4-methyl-5-phenyl-1H-imidazol-2-yl)-4-{[(1R)-1-phenylbutyl]carbamoyl}-[1,1′-biphenyl]-2-carboxylic acid]",0.01 to 0.1,–,–
"CCC[C@@H](NC(=O)c1ccc(-c2c(Cl)cccc2-c2ncc(-c3ccncc3)[nH]2)c(C(=O)O)c1)c1ccccc1 (atropisomer, axis not shown) [Example 107, (S)-2′-chloro-4-{[(1R)-1-phenylbutyl]carbamoyl}-6′-[5-(pyridin-4-yl)-1H-imidazol-2-yl]-[1,1′-biphenyl]-2-carboxylic acid]",0.01 to 0.1,–,–
"CCC[C@@H](NC(=O)c1ccc(-c2c(Cl)cccc2-c2nc3cc(Cl)c(F)cc3[nH]2)c(C(=O)O)c1)c1ccccc1 (atropisomer, axis not shown) [Example 108, (S)-2′-chloro-6′-(5-chloro-6-fluoro-1H-1,3-benzodiazol-2-yl)-4-{[(1R)-1-phenylbutyl]carbamoyl}-[1,1′-biphenyl]-2-carboxylic acid]",< 0.01,–,–
"CCC[C@@H](NC(=O)c1ccc(-c2c(Cl)cccc2-c2nc3cc(O)ccc3[nH]2)c(C(=O)OC)c1)c1ccccc1 (atropisomer, axis not shown) [Example 128, (S)-methyl 2′-chloro-6′-(5-hydroxy-1H-1,3-benzodiazol-2-yl)-4-{[(1R)-1-phenylbutyl]carbamoyl}-[1,1′-biphenyl]-2-carboxylate]",0.01 to 0.1,–,–
"CCC[C@@H](NC(=O)c1ccc(-c2c(Cl)cccc2-c2nc3cc(OC)ccc3[nH]2)c(C(=O)O)c1)c1ccccc1 (atropisomer, axis not shown) [Example 132, (S)-2′-chloro-6′-(5-methoxy-1H-1,3-benzodiazol-2-yl)-4-{[(1R)-1-phenylbutyl]carbamoyl}-[1,1′-biphenyl]-2-carboxylic acid]",< 0.01,< 0.01,–
"CCC[C@@H](NC(=O)c1ccc(-c2c(Cl)cccc2-c2nc3cnccc3[nH]2)c(C(=O)O)c1)c1ccccc1 (atropisomer, axis not shown) [Example 133, (S)-2′-chloro-6′-{1H-imidazo[4,5-c]pyridin-2-yl}-4-{[(1R)-1-phenylbutyl]carbamoyl}-[1,1′-biphenyl]-2-carboxylic acid]",< 0.01,–,–
"CCC[C@@H](NC(=O)c1ccc(-c2c(Cl)cccc2-c2nc3cc(OC(C)=O)ccc3[nH]2)c(C(=O)O)c1)c1ccccc1 (atropisomer, axis not shown) [Example 134, (S)-2′-[5-(acetyloxy)-1H-1,3-benzodiazol-2-yl]-6′-chloro-4-{[(1R)-1-phenylbutyl]carbamoyl}-[1,1′-biphenyl]-2-carboxylic acid]",< 0.01,< 0.01,–
"CCC[C@@H](NC(=O)c1ccc(-c2c(Cl)cccc2-c2nc3cc(O)ccc3[nH]2)c(C(=O)O)c1)c1ccccc1 (atropisomer, axis not shown) [Example 135, (S)-2′-chloro-6′-(5-hydroxy-1H-1,3-benzodiazol-2-yl)-4-{[(1R)-1-phenylbutyl]carbamoyl}-[1,1′-biphenyl]-2-carboxylic acid]",0.01 to 0.1,–,–
"CCC[C@@H](NC(=O)c1ccc(-c2c(Cl)cccc2-c2nc3cc(OC(C)=O)ccc3[nH]2)c(C(=O)O)c1)c1ccccc1 (atropisomer, axis not shown) [Example 136, (S)-2′-[5-(acetyloxy)-1H-1,3-benzodiazol-2-yl]-6′-chloro-4-{[(1R)-1-phenylbutyl]carbamoyl}-[1,1′-biphenyl]-2-carboxylic acid]",0.101 to 0.5,–,–
"CCC[C@@H](NC(=O)c1ccc(-c2c(Cl)cccc2-c2nc3ccccc3[nH]2)c(C(=O)O)c1)c1ccccc1 (atropisomer, axis not shown) [Example 141, (R)-2′-(1H-1,3-benzodiazol-2-yl)-6′-chloro-4-{[(1R)-1-phenylbutyl]carbamoyl}-[1,1′-biphenyl]-2-carboxylic acid]",0.01 to 0.1,–,–
"COC[C@@H](NC(=O)c1ccc(-c2c(Cl)cccc2-c2nc3ccccc3[nH]2)c(C(=O)O)c1)c1ccccc1 (atropisomer, axis not shown) [Example 150, (S)-2′-(1H-1,3-benzodiazol-2-yl)-6′-chloro-4-{[(1S)-2-methoxy-1-phenylethyl]carbamoyl}-[1,1′-biphenyl]-2-carboxylic acid]",< 0.01,< 0.01,–
"CC(C)(O)C[C@@H](NC(=O)c1ccc(-c2c(Cl)cccc2-c2nc3ccccc3[nH]2)c(C(=O)O)c1)c1ccccc1 (atropisomer, axis not shown) [Example 151, (S)-2′-(1H-1,3-benzodiazol-2-yl)-6′-chloro-4-{[(1R)-3-hydroxy-3-methyl-1-phenylbutyl]carbamoyl}-[1,1′-biphenyl]-2-carboxylic acid]",< 0.01,< 0.01,–
"CCC[C@H](NC(=O)c1ccc(-c2c(Cl)cccc2-c2nc3ccccc3[nH]2)c(C(=O)O)c1)c1ccccc1 (atropisomer, axis not shown) [Example 152, (S)-2′-(1H-1,3-benzodiazol-2-yl)-6′-chloro-4-{[(1S)-1-phenylbutyl]carbamoyl}-[1,1′-biphenyl]-2-carboxylic acid]",0.01 to 0.1,–,–
"COC[C@@H](NC(=O)c1ccc(-c2c(Cl)cccc2-c2nc3cc(OC)c(F)cc3[nH]2)c(C(=O)O)c1)c1ccccc1 (atropisomer, axis not shown) [Example 154, (S)-2′-chloro-6′-(6-fluoro-5-methoxy-1H-1,3-benzodiazol-2-yl)-4-{[(1S)-2-methoxy-1-phenylethyl]carbamoyl}-[1,1′-biphenyl]-2-carboxylic acid]",< 0.01,–,–
"CCC[C@@H](NC(=O)c1ccc(-c2c(Cl)cccc2-c2nc3cc(O)ccc3[nH]2)c(C(=O)O)c1)c1ccccc1 (atropisomer, axis not shown) [Example 155, (S)-2′-chloro-6′-(5-hydroxy-1H-1,3-benzodiazol-2-yl)-4-{[(1R)-1-phenylbutyl]carbamoyl}-[1,1′-biphenyl]-2-carboxylic acid]",< 0.01,–,–
"O=C(N[C@H](CN1CCOCC1)c1ccccc1)c1ccc(-c2c(Cl)cccc2-c2nc3ccccc3[nH]2)c(C(=O)O)c1 (atropisomer, axis not shown) [Example 156, (S)-2′-(1H-1,3-benzodiazol-2-yl)-6′-chloro-4-{[(1S)-2-(morpholin-4-yl)-1-phenylethyl]carbamoyl}-[1,1′-biphenyl]-2-carboxylic acid]",< 0.01,< 0.01,–
"CCC[C@@H](NC(=O)c1ccc(-c2c(Cl)cccc2-c2nc3ccc(F)c(F)c3[nH]2)c(C(=O)O)c1)C1CCCCC1 (atropisomer, axis not shown) [Example 159, (S)-2′-chloro-4-{[(1R)-1-cyclohexylbutyl]carbamoyl}-6′-(6,7-difluoro-1H-1,3-benzodiazol-2-yl)-[1,1′-biphenyl]-2-carboxylic acid]",–,< 0.01,< 0.01
"CCC[C@@H](NC(=O)c1ccc(-c2c(Cl)cccc2-c2nc3cc(F)c(F)cc3[nH]2)c(C(=O)O)c1)C1CCCCC1 (atropisomer, axis not shown) [Example 162, (S)-2′-chloro-4-{[(1R)-1-cyclohexylbutyl]carbamoyl}-6′-(5,6-difluoro-1H-1,3-benzodiazol-2-yl)-[1,1′-biphenyl]-2-carboxylic acid]",–,< 0.01,< 0.01
"O=C(NC(CCC(F)(F)F)c1ccccc1)c1ccc(-c2cc(Cl)ccc2-c2nc3ccccc3[nH]2)c(C(=O)O)c1 (racemic) [Example 158, 2′-(1H-Benzo[d]imidazol-2-yl)-5′-chloro-4-((4,4,4-trifluoro-1-phenylbutyl)carbamoyl)-[1,1′-biphenyl]-2-carboxylic acid]",–,0.01 to 0.1,0.01 to 0.1
"CC(C)CC(NC(=O)c1ccc(-c2cc(Cl)ccc2-c2nc3ccccc3[nH]2)c(C(=O)O)c1)c1ccccc1 (racemic) [Example 210, 2′-(1H-1,3-benzodiazol-2-yl)-5′-chloro-4-[(3-methyl-1-phenylbutyl)carbamoyl]-[1,1′-biphenyl]-2-carboxylic acid]",–,< 0.01,< 0.01
"CC(C)(C)CC(NC(=O)c1ccc(-c2cc(Cl)ccc2-c2nc3ccccc3[nH]2)c(C(=O)O)c1)c1ccccc1 (racemic) [Example 212, 2′-(1H-1,3-benzodiazol-2-yl)-5′-chloro-4-[(3,3-dimethyl-1-phenylbutyl)carbamoyl]-[1,1′-biphenyl]-2-carboxylic acid]",–,0.01 to 0.1,0.01 to 0.1
